Assay results published in ChEMBL document CHEMBL1201862, “PubChem BioAssay data set” (2004).
Activity calls are given as the source filed them.

Assays:
Kallikrein-7 = Kallikrein-7 (Homo sapiens, UniProt P49862); assay: Fluorescence Intensity-based biochemical primary high throughput dose response assay to identify activators of kallikrein-7 (K7) zymogen.
[1] = cytotoxicity in HPDE-C7 cells, cell-based, fluorescence, HTS (AID 430); format: functional; details: Homo sapiens
[2] = cytotoxicity in KRAS-transformed pancreatic duct cells, primary screen, cell-based, fluorescence, HTS (AID 431); format: functional; details: Homo sapiens;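 further: cell line used: HPDE-C7K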
[3] = target: Eukaryotic translation initiation factor 4E (Mus musculus, UniProt P63073); assay: eIF4E–eIF4G protein interaction inhibitors, dose response, biochemical, TR-FRET (AID 855); format: functional;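 further: potency for disrupting eIF4E binding to eIF4GI seen as loss of FRET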
Chain of Eukaryotic translation initiation factor 4E (P63073 whole entry): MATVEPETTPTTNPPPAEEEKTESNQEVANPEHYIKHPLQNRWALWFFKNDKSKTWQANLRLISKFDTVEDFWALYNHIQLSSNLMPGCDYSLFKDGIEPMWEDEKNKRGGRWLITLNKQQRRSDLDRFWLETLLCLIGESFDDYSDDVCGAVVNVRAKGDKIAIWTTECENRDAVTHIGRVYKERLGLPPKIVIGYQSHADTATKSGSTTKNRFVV

[4] = inhibitors of Vif binding to APOBEC3G peptide, primary screen, biochemical, TR-FRET, GST-Vif 1-94, biotin-A3G peptide, dose response retest (AID 1117319); format: functional;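 further: TR-FRET signal of purified GST-Vif binding a biotinylated A3G peptide; inhibitors lower the FRET signal by blocking Vif and A3G binding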
Beta-galactosidase = Beta-galactosidase (Escherichia coli, UniProt Q8VNN2); assay: Dose response counterscreen for EBI2 assay utilizing the enzyme, b-galactosidase.; format: functional
Chain of Beta-galactosidase (Q8VNN2 whole entry): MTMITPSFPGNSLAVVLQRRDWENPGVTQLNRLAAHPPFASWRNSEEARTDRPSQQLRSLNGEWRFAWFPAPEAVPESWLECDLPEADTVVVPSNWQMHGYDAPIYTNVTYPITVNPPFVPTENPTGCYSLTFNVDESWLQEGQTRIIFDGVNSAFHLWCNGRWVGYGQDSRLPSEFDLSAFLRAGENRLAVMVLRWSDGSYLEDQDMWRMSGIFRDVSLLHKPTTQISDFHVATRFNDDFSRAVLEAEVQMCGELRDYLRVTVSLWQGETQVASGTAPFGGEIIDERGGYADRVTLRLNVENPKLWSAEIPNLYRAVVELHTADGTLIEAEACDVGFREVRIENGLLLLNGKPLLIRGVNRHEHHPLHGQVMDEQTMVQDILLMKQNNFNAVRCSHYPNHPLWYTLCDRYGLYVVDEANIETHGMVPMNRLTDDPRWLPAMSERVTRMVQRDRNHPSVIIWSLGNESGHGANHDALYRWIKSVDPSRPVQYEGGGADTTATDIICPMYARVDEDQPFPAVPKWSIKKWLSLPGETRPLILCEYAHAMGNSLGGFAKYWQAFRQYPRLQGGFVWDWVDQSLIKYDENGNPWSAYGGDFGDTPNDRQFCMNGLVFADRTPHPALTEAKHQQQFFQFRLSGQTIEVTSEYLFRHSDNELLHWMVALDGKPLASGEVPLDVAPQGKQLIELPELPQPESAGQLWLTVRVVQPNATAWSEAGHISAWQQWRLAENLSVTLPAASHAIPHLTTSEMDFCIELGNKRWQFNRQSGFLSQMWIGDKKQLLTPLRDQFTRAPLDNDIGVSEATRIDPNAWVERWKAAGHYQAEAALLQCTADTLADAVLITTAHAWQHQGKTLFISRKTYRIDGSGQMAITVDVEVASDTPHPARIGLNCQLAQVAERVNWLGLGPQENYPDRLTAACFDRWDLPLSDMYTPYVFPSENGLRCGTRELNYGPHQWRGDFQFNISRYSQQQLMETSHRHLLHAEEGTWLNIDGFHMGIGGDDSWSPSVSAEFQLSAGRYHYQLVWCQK

[5] = Shn3 3'UTR reporter inhibitors, dose response, cell-based, Clone20 osteoblasts, firefly luciferase, cherry-picked (AID 624132); format: functional;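 further: firefly luciferase luminescence from reporter carrying the Shn3 3'UTR in osteoblasts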
[6] = HepG2 cell cytotoxicity, dose response, cytotoxicity control for Shn3 inhibitor project, CellTiter-Glo, cherry-picked (AID 624134); format: functional, cell-based
[7] = control 3'UTR Renilla luciferase suppression, dose response, counter-screen for Shn3 inhibitor project, cell-based, Clone20-Shn3RL, cherry-picked (AID 624133); format: functional
[8] = target: T1, Hepatocyte nuclear factor 4-alpha (Homo sapiens, UniProt P41235); format: functional, cell-based;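 further: biochemical luminescence-based dose-response counterscreen measuring inhibition of HNF4 dimerization, run alongside a screen for blockers of ABHD5–perilipin-5 interaction; split luciferase complementation of HNF4 fusion proteins in cell lysate measuring dimerization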
T1 sequence (P41235 whole entry): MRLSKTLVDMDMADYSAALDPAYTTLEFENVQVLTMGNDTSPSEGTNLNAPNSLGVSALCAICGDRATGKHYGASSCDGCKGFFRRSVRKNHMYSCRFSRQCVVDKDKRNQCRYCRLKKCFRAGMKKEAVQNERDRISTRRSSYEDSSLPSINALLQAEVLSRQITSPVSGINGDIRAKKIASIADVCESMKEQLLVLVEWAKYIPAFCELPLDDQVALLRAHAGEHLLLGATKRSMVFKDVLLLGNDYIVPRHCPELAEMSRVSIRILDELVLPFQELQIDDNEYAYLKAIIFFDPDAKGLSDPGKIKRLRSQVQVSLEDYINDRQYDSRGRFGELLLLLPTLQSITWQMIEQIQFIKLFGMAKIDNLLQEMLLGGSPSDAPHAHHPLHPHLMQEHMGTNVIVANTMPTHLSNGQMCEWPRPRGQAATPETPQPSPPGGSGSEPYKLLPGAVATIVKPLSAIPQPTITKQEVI

Paired box protein Pax-8 = Paired box protein Pax-8 (Homo sapiens, UniProt Q06710); assay: inhibitors of PAX8-driven TPO luciferase reporter, dose response, RMG-I cells, cherry-pick (AID 687027); format: functional, cell-based;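 further: luciferase reporter driven by Pax8 target thyroperoxidase promoter measured by SteadyGlo luminescence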
Chain of Paired box protein Pax-8 (Q06710 whole entry): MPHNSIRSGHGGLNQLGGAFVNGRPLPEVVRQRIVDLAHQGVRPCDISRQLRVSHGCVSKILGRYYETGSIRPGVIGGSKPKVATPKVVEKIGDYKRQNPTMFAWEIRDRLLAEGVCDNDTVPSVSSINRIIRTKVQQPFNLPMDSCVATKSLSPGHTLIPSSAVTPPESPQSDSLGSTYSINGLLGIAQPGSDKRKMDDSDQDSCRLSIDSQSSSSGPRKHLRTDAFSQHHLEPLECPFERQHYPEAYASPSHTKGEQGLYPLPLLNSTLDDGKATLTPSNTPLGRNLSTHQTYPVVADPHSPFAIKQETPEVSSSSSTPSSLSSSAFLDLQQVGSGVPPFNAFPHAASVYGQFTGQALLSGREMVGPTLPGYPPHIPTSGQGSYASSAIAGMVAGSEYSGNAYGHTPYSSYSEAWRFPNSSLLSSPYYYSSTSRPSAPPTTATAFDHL

[9] = inhibitors of PGC1a acetylation in cells, dose response, cell-based, cherry-picked samples (AID 720514); format: functional;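 further: potency may reflect raised or lowered acetylation signal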
Protein Tat = target: T2, Protein Tat (Human immunodeficiency virus type 1 group M subtype B (isolate HXB2)(HIV-1), UniProt P04608); format: functional;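 further: tat binding to TAR RNA read out by fluorescence polarization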
T2 sequence (P04608 whole entry): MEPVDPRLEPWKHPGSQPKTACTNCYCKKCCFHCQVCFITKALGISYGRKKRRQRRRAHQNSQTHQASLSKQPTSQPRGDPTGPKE

[10] = THP-1 cell cytotoxicity, dose response, cytotoxicity control for non-replicating M. tuberculosis project (AID 489025); format: functional
cells = format: functional
[11] = target: T3, Corticotropin-releasing factor receptor 2/Corticotropin-releasing factor-binding protein (Homo sapiens, UniProt P24387+Q13324); assay: Dose Response confirmation of uHTS hits for small molecule antagonists of the CRF-binding protein and CRF-R2 receptor complex.; format: functional; details: read-out: IC50_Mean
T3 sequence (Q13324 whole entry): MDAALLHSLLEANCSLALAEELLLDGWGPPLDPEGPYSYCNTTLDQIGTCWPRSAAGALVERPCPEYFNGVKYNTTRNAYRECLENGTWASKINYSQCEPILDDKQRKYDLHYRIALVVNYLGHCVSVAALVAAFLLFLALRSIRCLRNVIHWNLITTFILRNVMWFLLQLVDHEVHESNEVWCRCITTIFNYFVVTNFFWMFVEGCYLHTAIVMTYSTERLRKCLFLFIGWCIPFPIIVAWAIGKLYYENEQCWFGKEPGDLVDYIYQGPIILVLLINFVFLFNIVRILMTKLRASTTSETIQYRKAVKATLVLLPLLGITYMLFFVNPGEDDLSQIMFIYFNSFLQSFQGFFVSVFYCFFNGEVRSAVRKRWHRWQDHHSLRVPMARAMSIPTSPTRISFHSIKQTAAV
T3 sequence (P24387 whole entry): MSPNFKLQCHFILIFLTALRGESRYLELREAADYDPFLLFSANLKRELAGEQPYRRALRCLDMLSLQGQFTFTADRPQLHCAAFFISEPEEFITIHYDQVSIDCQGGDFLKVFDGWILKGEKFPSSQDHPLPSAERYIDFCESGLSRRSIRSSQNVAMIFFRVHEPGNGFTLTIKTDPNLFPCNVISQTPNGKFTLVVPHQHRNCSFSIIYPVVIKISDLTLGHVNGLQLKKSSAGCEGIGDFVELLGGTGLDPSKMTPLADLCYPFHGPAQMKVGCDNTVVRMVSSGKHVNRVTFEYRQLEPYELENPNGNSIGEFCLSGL

[12] = target: T3, Corticotropin-releasing factor receptor 2/Corticotropin-releasing factor-binding protein; assay: activators of CRF receptor 2 with binding protein – uHTS hits, confirmation (AID 602473); format: functional; details: read-out: EC50_Mean
[13] = CRF-BP/CRF-R2 complex antagonists, dose response, cell-based, uHTS hits, 384-well (AID 651639); format: functional, Homo sapiens; details: read-out: IC50_Mean
[14] = target: T4, Mannose-6-phosphate isomerase (Homo sapiens, UniProt P34949); assay: human PMI inhibitors, high substrate, primary screen, biochemical, fluorescence intensity, high mannose 6-phosphate (AID 1220)
T4 sequence (P34949 whole entry): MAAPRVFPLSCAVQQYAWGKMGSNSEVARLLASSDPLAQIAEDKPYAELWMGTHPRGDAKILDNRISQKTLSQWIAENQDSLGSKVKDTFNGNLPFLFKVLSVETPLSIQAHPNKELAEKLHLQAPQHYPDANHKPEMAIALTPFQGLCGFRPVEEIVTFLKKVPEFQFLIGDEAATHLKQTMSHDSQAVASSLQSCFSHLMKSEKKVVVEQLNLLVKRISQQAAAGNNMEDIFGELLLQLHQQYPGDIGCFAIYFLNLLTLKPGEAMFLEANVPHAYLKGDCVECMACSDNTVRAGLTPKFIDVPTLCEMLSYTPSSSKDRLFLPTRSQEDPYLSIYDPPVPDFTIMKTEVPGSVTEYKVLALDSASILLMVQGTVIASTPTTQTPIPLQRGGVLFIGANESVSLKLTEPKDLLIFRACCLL

[15] = inhibitors of HIV Env-driven cell fusion, dose response, cherry-pick (AID 652057); format: functional, cell-based
[16] = CEM21 lymphoblast cell cytotoxicity, dose response, cytotoxicity control for viral fusion inhibitor project, CellTiter-Glo luminescence, cherry-picked (AID 652042); format: functional, cell-based;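 further: potency for signal decrease meaning cytotoxicity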
[17] = ZM109 Env clade C HIV-1 fusion inhibitors, dose response, HeLa effector, CEM target cells, luciferase, cherry-pick (AID 652058); format: functional, cell-based
[18] = off-target signal loss in HeLa-CEM21 co-culture – HeLa F-luc CTL cells, cherry-picked, counter-screen for HIV-1 Env fusion inhibitor project, dose response (AID 652040); format: functional, cell-based;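 further: potency for signal decrease marking cytotoxic or nonspecific inhibition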
[19] = inhibitors of clade B AD8 Env fusion, dose response, cell-based, cherry-pick (AID 652062); format: functional;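 further: luciferase signal from cell-cell fusion driven by HIV-1 clade B AD8 Env; potency is for inhibitors of fusion seen as a drop in luminescence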
[20] = NIH:OVCAR-3 ovarian cancer cell cytotoxicity, dose response, PAX8 inhibitor project, plate reader, dry powder samples (AID 743044); format: functional, cell-based
[21] = cytotoxicity in OVCAR8 ovarian cancer cells, dose response, PAX8 project, cell-based, plate reader, dry powder samples (AID 743197); format: functional; details: OVCAR-8
[22] = target: T5, Endoribonuclease toxin MazF (Escherichia coli K-12, UniProt P0AE70); assay: MazF toxin RNase activators, dose response, biochemical, fluorescence, single-stranded RNA substrate, uHTS hits (AID 588481); format: functional
T5 sequence (P0AE70 whole entry): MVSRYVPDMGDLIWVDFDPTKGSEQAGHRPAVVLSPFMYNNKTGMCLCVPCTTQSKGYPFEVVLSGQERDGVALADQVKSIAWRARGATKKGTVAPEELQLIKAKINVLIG

[23] = target: T5, Endoribonuclease toxin MazF; assay: fluorescent RNA oligo signal without MazF, dose response, counter-screen for MazEF activator project, biochemical, fluorescence, single-stranded RNase substrate (AID 588502); format: functional
[24] = Luminescence Cell-Based Dose Response HTS to Identify Inhibitors of 5'UTR Stem-Loop Driven Prion Protein mRNA Translation in H4 Neuroglioblastoma Cells. [Related pubchem assays: 1827 (Project Summary), 1813 (Primary HTS)]; format: functional
[25] = microbe, parasite or virus in culture; format: functional; details: Mycobacterium tuberculosis
[26] = growth suppression of PTEN-null colon cells, dose response, cell-based, HCT116 PTEN knockout (AID 1047); format: functional;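 further: HCT116 colon tumor cells with PTEN knocked out; cells exposed to compound for 60 hours before readout; potency for loss of cell viability measured by luminescence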
[27] = growth suppression of beta-catenin-knockout colon cells, dose response, cell-based, HCT116, human colon tumor (AID 1045); format: functional;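 further: HCT116 colon tumor cells with beta catenin knocked out; cells exposed to compound for 60 hours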
[28] = Luminescence Cell-Based Dose Retest to Confirm Inhibitors of Cancer Stem Cells. [Related pubchem assays (depositor defined):AID2717, AID2721]; format: functional; details: Homo sapiens
Large T antigen = Large T antigen (Simian virus 40, UniProt P03070); format: functional, Betapolyomavirus macacae;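 further: Confirmatory-stage PubChem screen for compounds that inhibit SV40 T antigen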
Chain of Large T antigen (P03070 whole entry): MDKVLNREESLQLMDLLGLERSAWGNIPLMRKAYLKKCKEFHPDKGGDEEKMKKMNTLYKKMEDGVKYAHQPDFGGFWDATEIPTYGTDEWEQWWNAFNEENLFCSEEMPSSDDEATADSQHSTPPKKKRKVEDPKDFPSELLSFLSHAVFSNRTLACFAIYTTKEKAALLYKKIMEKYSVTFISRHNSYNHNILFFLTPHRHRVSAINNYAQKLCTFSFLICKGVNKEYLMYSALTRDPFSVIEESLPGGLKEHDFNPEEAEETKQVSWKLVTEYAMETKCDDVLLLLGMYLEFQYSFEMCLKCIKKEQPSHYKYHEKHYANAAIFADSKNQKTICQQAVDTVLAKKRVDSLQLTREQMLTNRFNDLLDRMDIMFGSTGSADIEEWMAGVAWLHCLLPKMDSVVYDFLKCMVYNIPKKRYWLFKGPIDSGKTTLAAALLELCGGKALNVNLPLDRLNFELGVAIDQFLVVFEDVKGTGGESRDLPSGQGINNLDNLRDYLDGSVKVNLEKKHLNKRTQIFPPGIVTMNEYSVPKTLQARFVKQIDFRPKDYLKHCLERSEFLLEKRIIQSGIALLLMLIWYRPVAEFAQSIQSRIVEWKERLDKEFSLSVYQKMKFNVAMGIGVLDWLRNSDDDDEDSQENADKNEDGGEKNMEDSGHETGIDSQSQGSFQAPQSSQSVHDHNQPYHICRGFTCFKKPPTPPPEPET

[29] = target: FAD-linked sulfhydryl oxidase ALR (Homo sapiens, UniProt P55789); assay: inhibitors of human ALR sulfhydryl oxidase, dose response, biochemical, H2O2 detection, luminescence, cherry-pick (AID 493248)
Chain of FAD-linked sulfhydryl oxidase ALR (P55789 whole entry): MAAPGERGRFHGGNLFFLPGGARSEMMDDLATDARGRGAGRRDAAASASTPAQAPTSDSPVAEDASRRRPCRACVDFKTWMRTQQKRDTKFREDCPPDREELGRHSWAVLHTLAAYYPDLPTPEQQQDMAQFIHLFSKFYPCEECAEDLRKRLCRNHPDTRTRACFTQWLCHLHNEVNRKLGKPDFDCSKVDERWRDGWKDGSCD

Chain of Kallikrein-7 (P49862 whole entry): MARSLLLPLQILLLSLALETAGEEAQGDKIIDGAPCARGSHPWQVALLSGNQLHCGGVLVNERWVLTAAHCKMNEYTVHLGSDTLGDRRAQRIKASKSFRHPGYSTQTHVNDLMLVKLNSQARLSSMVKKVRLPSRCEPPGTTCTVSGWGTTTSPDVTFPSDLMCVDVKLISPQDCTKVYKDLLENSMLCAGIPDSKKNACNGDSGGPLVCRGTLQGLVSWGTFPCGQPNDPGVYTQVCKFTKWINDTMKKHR

CCOC(=O)N1CCN(C(=O)COc2ccc3c(c2)C(=O)CC(C)(C)O3)CC1
EC50 (Kallikrein-7): > 69.5 µM (inactive)

CN(C)S(=O)(=O)[n+]1ccn(C)c1.c1ccc([B-](c2ccccc2)(c2ccccc2)c2ccccc2)cc1
EC50 [1]: 2.68 µM (active) | EC50 [2]: 1.77 µM (active) | IC50 [3]: 15.7 µM (active)

COc1ccc(S(=O)(=O)Nc2ccc3c(c2)OCO3)cc1C
IC50 [4]: > 100 µM (active)

CCOC(=O)N1CCN(C(=O)CSc2ccc(Cl)cc2)CC1
IC50 (Beta-galactosidase): > 80 µM (inactive)

C#CCN(C[C@@H]1[C@@H](OC(=O)NC2CCCC2)[C@@H](OC(=O)NC2CCCC2)Cn2c(=O)ccc(=O)n21)S(=O)(=O)c1ccc(C)cc1
AC50 [5]: 12.9 µM (active) | AC50 [6]: 23.1 µM (active) | AC50 [7]: 14.4 µM (active) | IC50 [8]: 16.5 µM (inactive) | AC50 (Paired box protein Pax-8): 6.12 µM (active) | AC50 [9]: 3.87 µM (active)

COC(=O)C1=C(C)NC(=O)/C1=C\c1cccs1
IC50 (Protein Tat): > 100 µM (active) | IC50 [4]: > 100 µM (active)

CC(CN1CCOCC1)OC(=O)c1ccc(Br)cc1 (centres undefined)
EC50 [1]: 6.73 µM (active) | EC50 [2]: 9.11 µM (active) | CC50 [10]: 38.2 µM (active) | IC50 (cells): 5.68 µM (active)

CC(C)N(C)c1ncnc2c1ncn2[C@H]1CN(Cc2ccc(Cl)cc2)C[C@@H](CO)O1
IC50 (Beta-galactosidase): > 80 µM (inactive)

Cc1c(NS(=O)(=O)c2ccccc2)ccc([N+](=O)[O-])c1Cl
IC50 [11]: 3.86 µM (active) | EC50 [12]: > 53 µM (inactive) | IC50 [13]: 13.2 µM (active)

O=C(Nc1cccc(F)c1)c1coc(=O)c(Br)c1
IC50 [11]: 9.89 µM (active) | EC50 [12]: > 53 µM (inactive) | IC50 [13]: 12.4 µM (active)

O=S(=O)(c1ccc(-c2cn3ccccc3n2)cc1)N1CCOCC1
EC50 (Kallikrein-7): > 69.5 µM (inactive)

Fc1ccc(/N=c2\ssnc2Cl)c(F)c1
IC50 [14]: 25.3 µM (active) | IC50 [3]: 38.5 µM (inactive)

CCOc1ccc(N(CC(=O)NCCOc2ccc(C)cc2)S(=O)(=O)c2ccccc2)cc1
IC50 (Beta-galactosidase): > 80 µM (inactive)

COc1cc(C(=O)O[C@H]2CC(C)=CC[C@@]3(C)CC[C@@](O)(C(C)C)[C@H]23)ccc1O [TEFERIN]
AC50 [15]: 1.19 µM (active) | AC50 [16]: 35.6 µM (active) | AC50 [17]: 1.64 µM (active) | AC50 [18]: 2.35 µM (active) | AC50 [19]: 4.06 µM (active)

C[C@@H]1CCCCO[C@H](CN(C)CC2CCCCC2)[C@H](C)CN([C@@H](C)CO)C(=O)c2cc(NC(=O)Nc3ccccc3)ccc2O1
AC50 (Paired box protein Pax-8): 10.9 µM (active) | AC50 [20]: 57 µM (active) | AC50 [21]: 61 µM (active)

CCOC(=O)c1ccc(NC(=O)CSCc2ccco2)cc1
IC50 (Protein Tat): 81.6 µM (inconclusive) | IC50 [4]: > 73.7 µM (active)

Oc1nc2cc(/N=C/c3c(O)ccc4cc(Br)ccc34)ccc2[nH]1
IC50 [14]: > 50 µM (not active) | EC50 [22]: > 99 µM (inactive) | EC50 [23]: 5.48 µM (active)

Cc1cc([N+](=O)[O-])ccc1NCc1ccc2c(c1)OCCO2
IC50 [11]: 30.1 µM (active) | EC50 [12]: > 53 µM (inactive) | IC50 [13]: 19.9 µM (active)

COc1ccc2c(C)nc(Nc3nc(C)c(C)c(O)n3)nc2c1
EC50 [24]: > 120 µM (not active) | CC50 [25]: 7.44 µM (active) | EC50 [26]: 5.4 µM (active) | EC50 [27]: 4.69 µM (active) | AC50 [28]: 6.84 µM (active) | AC50 [15]: 10.3 µM (active) | AC50 [16]: 7.32 µM (active) | AC50 [17]: 2.84 µM (active) | AC50 [19]: 8.79 µM (active)

O=C(Nc1ccc(NC(=O)c2ccccc2O)cc1)Nc1ccc(F)cc1F
EC50 (Kallikrein-7): 9.78 µM (active)

O=C1CC(N2CCN(c3ccc(O)cc3)CC2)C(=O)N1Cc1cccs1 (centres undefined)
EC50 [1]: 6.78 µM (active) | IC50 (Large T antigen): 5.41 µM (active) | EC50 [2]: 12 µM (active) | AC50 [29]: 0.123 µM (active)
